Reference: patent publication US7709649B2, “Multi-substituted pyridyl sulfoximines and their use as insecticides” (Dow AgroSciences LLC, priority 2006, dated 2010)

What was measured:
[1] = test system: green peach aphid (Myzus persicae); test: Insecticidal test for green peach aphid in foliar spray assay; format: in vivo; parameters: key to GPA 200: % control at 200 ppm against green peach aphid in foliar spray tests / GPA 50: % control at 50 ppm against green peach aphid in foliar spray tests: A: 90-100; B: 80-89; C: 70-79; D: 60-69; E: 50-59; F: Less than 50; G: Inactive; H: Not tested; conditions: foliar spray on cabbage seedlings, 3 days, Corrected % Control (Abbott); for pest or weed control at 50 ppm: Myzus persicae, 72 h, read-out: GPA 50: % control at 50 ppm against green peach aphid in foliar spray tests
Method: where • X=No. of live aphids on solvent check plants • Y=No. of live aphids on treated plants Insecticidal Test for Green Peach Aphid (Myzus persicae) in Foliar Spray Assay Cabbage seedlings grown in 3-inch pots, with 2-3 small (3-5 cm) true leaves, were used as test substrate. The seedlings were infested with 20-50 green peach aphids (wingless adult and nymph) 2-3 days prior to chemical application. Four seedlings were used for each treatment. Compounds (2 mg) were dissolved in 2 ml of acetone:methanol (1:1) solvent, forming stock solutions of 1000 ppm. The stock solutions were diluted 5× with 0.025% Tween 20 in H2O to obtain the highest test solution at 200 ppm. A lower test concentration of 50 ppm was prepared by making a 4× dilution from the 200 ppm solution with a diluent consisting 80 parts of 0.025% Tween 20 in H2O and 20 parts of acetone: methanol (1:1). A hand-held Devilbiss sprayer was used for spraying a solution to both sides of cabbage leaves until runoff. Reference plants (solvent check) were sprayed with the diluent only. Treated plants were held in a holding room for three days at approximately 23° C. and 40% RH prior to grading. Evaluation was conducted by counting the number of live aphids per plant under a microscope. Insecticidal activity was measured by using Abbott's correction formula: Corrected % Control=100*(X−Y)/X where • X=No. of live aphids on solvent check plants • Y=No. of live aphids on treated plants The Corrected % Control values from the above assays are given in Table 1.

[2] = test system: cotton aphid (Aphis gossypii); test: Insecticidal test for cotton aphid in foliar spray assay; format: in vivo; conditions: for pest or weed control at 50 ppm / pest or weed control at 200 ppm: Aphis gossypii, 72 h, foliar spray on squash, 3 days, Corrected % Control (Abbott), Table 1; for pest or weed control at 50 ppm: read-out: CA 50: % control at 50 ppm against cotton aphid in foliar spray tests; for pest or weed control at 200 ppm: read-out: CA 200: % control at 200 ppm against cotton aphid in foliar spray tests; for CA 0.78: % Control at ppm against cotton aphid (foliar spray): 0.78 ppm; for CA 0.78: % Control at ppm against cotton aphid (foliar spray) / CA 3.13: % Control at ppm against cotton aphid (foliar spray) / CA 12.5: % Control at ppm against cotton aphid (foliar spray) / CA 50: % Control at ppm against cotton aphid (foliar spray): rundown assay, Table 2; for CA 3.13: % Control at ppm against cotton aphid (foliar spray): 3.13 ppm; for CA 12.5: % Control at ppm against cotton aphid (foliar spray): 12.5 ppm; for pest or weed control at 50 ppm / CA 50: % Control at ppm against cotton aphid (foliar spray): 50 ppm
Method: Insecticidal Test for Cotton Aphid (Aphis gossypii) in Foliar Spray Assay Squash with fully expanded cotyledon leaves were trimmed to one cotyledon per plant and infested with cotton aphid (wingless adult and nymph) 1 day prior to chemical application. Each plant was examined before chemical application to ensure proper infestation (ca. 30-70 aphids per plant). Compounds (2 mg) were dissolved in 2 ml of acetone:methanol (1:1) solvent, forming stock solutions of 1000 ppm. The stock solutions were diluted 5× with 0.025% Tween 20 in H2O to obtain the highest test solution at 200 ppm. Lower test concentrations (50, 12.5, 3.13 and 0.78 ppm) were prepared by making sequential 4× dilutions from the 200 ppm solution with a diluent consisting 80 parts of 0.025% Tween 20 in H2O and 20 parts of acetone:methanol (1:1). A hand-held Devilbiss sprayer was used to apply the spray solutions until runoff to both sides of the squash cotyledon leaves. Four plants (4 replications) were used for each concentration of each compound. Reference plants (solvent check) were sprayed with the diluent only. Treated plants were held in a holding room for 3 days at approximately 23° C. and 40% RH before the number of live aphids on each plant was recorded. Insecticidal activity was measured by Corrected % Control using Abbott's correction formula: Corrected % Control=100*(X−Y)/X where • X=No. of live aphids on solvent check plants • Y=No. of live aphids on treated plants Insecticidal Test for Green Peach Aphid (Myzus persicae) in Foliar Spray Assay

melting point [°C]	Structure (SMILES)	GPA 50: % control at 50 ppm against green peach aphid in foliar spray tests [1]	pest or weed control at 50 ppm [2] [%]	pest or weed control at 200 ppm [2] [%]	GPA 200: % control at 200 ppm against green peach aphid in foliar spray tests [1]	pest or weed control at 50 ppm [1] [%]	CA 0.78: % Control at ppm against cotton aphid (foliar spray) [2]	CA 3.13: % Control at ppm against cotton aphid (foliar spray) [2]	CA 12.5: % Control at ppm against cotton aphid (foliar spray) [2]	CA 50: % Control at ppm against cotton aphid (foliar spray) [2]
	CS(=O)(Cc1cnc(Cl)c(Cl)c1)=NC#N (centres unmarked) [Compound 1, [(5,6-dichloropyridin-3-yl)methyl](methyl)-oxido λ^4-sulfanylidenecyanamide]	G	90 to 100	90 to 100						
	CS(=O)(Cc1cnc(Cl)c(F)c1)=NC#N (centres unmarked) [Compound 2, [(5-fluroro-6-chloropyridin-3-yl)methyl](methyl)-oxido-λ^4-sulfanylidenecyanamide]		90 to 100	90 to 100	B (80-89)	50 to 59	A (90-100)	A (90-100)	A (90-100)	A (90-100)
	CC(c1cnc(Cl)c(F)c1)S(C)(=O)=NC#N (centres unmarked) [Compound 3, [1-(5-fluoro-6-chloropyridin-3-yl)ethyl](methyl)-oxido-λ^4-sulfanylidenecyanamid]		90 to 100	90 to 100	A (90-100)	80 to 89	A (90-100)	A (90-100)	A (90-100)	A (90-100)
	CSc1ncc(C(C)S(C)(=O)=NC#N)cc1F (centres unmarked) [Compound 4, [1-(5-fluoro-6-methylthioyridin-3-yl)ethyl]-(methyl)-oxido-λ^4-sulfanylidenecyanamide]	G	80 to 89	90 to 100	G					
123 to 125	COc1cc(CS(C)(=O)=NC#N)cnc1Cl (centres unmarked) [Compound 5, [(5-methoxy-6-chloropyridin-3-yl)methyl](methyl)-oxido-λ^4-sulfanylidenecyanamide]	G	70 to 79	90 to 100	G					
	COc1cc(C(C)S(C)(=O)=NC#N)cnc1Cl (centres unmarked) [Compound 6, [1-(5-methoxy-6-chloropyridin-3-yl)ethyl](methyl)-oxido-λ^4-sulfanylidenecyanamide]	G	60 to 69	90 to 100	G					
	CS(=O)(Cc1cnc(Cl)c(Br)c1)=NC#N (centres unmarked) [Compound 7, [(5-bromo-6-chloropyridin-3-yl)methyl](methyl)-oxido-λ^4-sulfanylidenecyanamide]	G	90 to 100	90 to 100	G					
	CC(c1cnc(Cl)c(Br)c1)S(C)(=O)=NC#N (centres unmarked) [Compound 8, [1-(5-bromo-6-chloropyridin-3-yl)ethyl](methyl)-oxido-λ^4-sulfanylidenecyanamide]	G	90 to 100	90 to 100	B (80-89)		E (50-59)	A (90-100)	A (90-100)	A (90-100)
	CS(=O)(Cc1cnc(Cl)cc1Cl)=NC#N (centres unmarked) [Compound 9, [(4,6-dichloropyridin-3-yl)methyl](methyl)-oxido λ^4-sulfanylidenecyanamide]	G	90 to 100	90 to 100						
